The text below walks through data of PMC6211260 (Journal of Enzyme Inhibition and Medicinal Chemistry, 2018).

One series can be described thus: Plasma stability. Format: in vitro ADME. The settings on record: 37 °C, 10 µM. The protocol:
About 10 µM of compound 2l was mixed with human plasma and rat plasma and the mixture was shaked at 37 °C for 30 min and 120 min. After each time interval, acetonitrile was added and the mixture was centrifugated (14000 rpm, 4 °C). The supernatant was injected into the LC-MS to detect the remaining amount of compound 2l.

Another series relates to colon cancer cell lines. In words: NCI five-dose testing, subpanel mean. Format: cell-based. The note with it: subpanel III: colon cancer. The protocol:
(§1) Screening against the cancer cell lines was carried out at the National Cancer Institute (NCI, Bethesda, Maryland, USA) applying the standard protocol of the NCI[22].

A further series relates to breast cancer cell lines. The experiment in a line: NCI five-dose testing, subpanel mean. The series is classed as cell-based. The note with it: subpanel IX: breast cancer. The protocol:
as §1

A further series concerns melanoma cell lines. The experiment in a line: NCI five-dose testing, subpanel mean. The note with it: subpanel V: melanoma. The series is classed as cell-based. The protocol: as §1
For series [1], the system named is ovarian cancer cell lines. The experiment in a line: NCI five-dose testing, subpanel mean. The note with it: subpanel VI: ovarian cancer. The series is classed as cell-based. The protocol:
as §1

The subject of a further series is CNS cancer cell lines. In words: NCI five-dose testing, subpanel mean. Format: cell-based. The note with it: subpanel IV: CNS cancer. The protocol:
as §1

Series [2] concerns non-small cell lung cancer cell lines. The experiment in a line: NCI five-dose testing, subpanel mean. Format: cell-based. The settings on record: subpanel II: non-small cell lung cancer. The protocol: as §1
A further series relates to renal cancer cell lines. The experiment in a line: NCI five-dose testing, subpanel mean. The series is classed as cell-based. The settings on record: subpanel VII: renal cancer. The protocol:
as §1

Another series has as its system Leukaemia cell lines. In words: NCI five-dose testing, subpanel mean. Format: cell-based. The note with it: subpanel I: Leukaemia. The protocol:
as §1

Series [3] deals with prostate cancer cell lines. In words: NCI five-dose testing, subpanel mean. The note with it: subpanel VIII: prostate cancer. The series is classed as cell-based. The protocol:
as §1

Series [4] relates to HT-29 colon cancer cell line. The experiment in a line: NCI five-dose testing. The note with it: Homo sapiens, HT-29. The series is classed as cell-based. The protocol: as §1
Series [5] relates to HOP-92 non-small cell lung cancer cell line. The experiment in a line: NCI five-dose testing. The settings on record: Homo sapiens, HOP-92. Format: cell-based. The protocol:
as §1

In series [6] the test system is SK-MEL-5 melanoma cell line. The experiment in a line: NCI five-dose testing. Format: cell-based. The note with it: Homo sapiens, SK-MEL-5. The protocol:
as §1

The subject of series [7] is MDA-MB-468 breast cancer cell line. The experiment in a line: NCI five-dose testing. The series is classed as cell-based. The note with it: Homo sapiens, MDA-MB-468. The protocol: as §1
Series [8] concerns U251 CNS cancer cell line. The experiment in a line: NCI five-dose testing. Format: cell-based. The note with it: Homo sapiens, U-251. The protocol: as §1
Series [9] relates to PC-3 prostate cancer cell line. In words: NCI five-dose testing. Format: cell-based. The settings on record: Homo sapiens, PC-3. The protocol: as §1

Molecules are shown by their SMILES.

By melting point is commonly meant the temperature, or range, at which the solid turns liquid. Turning to `COc1cccc(-c2nn(-c3ccccc3)cc2-c2ccnc(NCCCNS(=O)(=O)c3ccc(C)cc3)c2)c1` [Compound 2f, N-(3-((4-(3-(3-Methoxyphenyl)-1-phenyl-1H-pyrazol-4-yl)pyridin-2-yl)amino)propyl)-4-methylbenzenesulfonamide], the melting point fell in the range of 94 to 96 °C.

On to `COc1cccc(-c2nn(-c3ccccc3)cc2-c2ccnc(NCCNS(=O)(=O)c3cccc(F)c3)c2)c1` [Compound 1h, 3-Fluoro-N-(2-((4-(3-(3-methoxyphenyl)-1-phenyl-1H-pyrazol-4-yl)pyridin-2-yl)amino)ethyl)benzenesulfonamide], for which the melting point is 118 to 120 °C.

On to `COc1ccc([C@@H]2Sc3ccccc3N(CCN(C)C)C(=O)[C@@H]2OC(C)=O)cc1` [Diltiazem], for which the “Plasma stability, remaining unchanged” value in “Plasma stability” (Human plasma, 30 min) amounted to 91.5%; in the series “Plasma stability” (Human plasma, 30 min, listed as diltiazem) it was 91.5%; in the series “Plasma stability” (Human plasma, 120 min) it was 89.3%; in “Plasma stability” (Human plasma, 120 min, listed as diltiazem) it was 89.3%; in “Plasma stability” (Rat plasma, 30 min), 86.3%; in the series “Plasma stability” (Rat plasma, 120 min), 45.4%.

Regarding `Cc1ccc(S(=O)(=O)NCCCNc2cc(-c3cn(-c4ccccc4)nc3-c3cccc(O)c3)ccn2)cc1` [Compound 2n, N-(3-((4-(3-(3-Hydroxyphenyl)-1-phenyl-1H-pyrazol-4-yl)pyridin-2-yl)amino)propyl)-4-methylbenzenesulfonamide], the melting point fell in the range of 158 to 160 °C.

`COc1cccc(-c2nn(-c3ccccc3)cc2-c2ccnc(NCCCNS(=O)(=O)c3cccc4ccccc34)c2)c1` [Compound 2i, N-(3-((4-(3-(3-Methoxyphenyl)-1-phenyl-1H-pyrazol-4-yl)pyridin-2-yl)amino)propyl) naphthalene-1-sulfonamide] displayed a melting point of 134 to 136 °C.

Compound `O=S(=O)(NCCNc1cc(-c2cn(-c3ccccc3)nc2-c2cccc(O)c2)ccn1)c1cccc2ccccc12` [Compound 1q, N-(2-((4-(3-(3-Hydroxyphenyl)-1-phenyl-1H-pyrazol-4-yl)pyridin-2-yl)amino)ethyl)naphthalene-1-sulfonamide] displayed a melting point of 146 to 148 °C.

`Cc1ccc(S(=O)(=O)NCCNc2cc(-c3cn(-c4ccccc4)nc3-c3cccc(O)c3)ccn2)cc1` [Compound 1n, N-(2-((4-(3-(3-Hydroxyphenyl)-1-phenyl-1H-pyrazol-4-yl)pyridin-2-yl)amino)ethyl)-4-methylbenzenesulfonamide]: the melting point lay within 114 to 116 °C.

`COc1ccc(S(=O)(=O)NCCNc2cc(-c3cn(-c4ccccc4)nc3-c3cccc(OC)c3)ccn2)cc1` [Compound 1e, 4-Methoxy-N-(2-((4-(3-(3-methoxyphenyl)-1-phenyl-1H-pyrazol-4-yl)pyridin-2-yl)amino)ethyl)benzenesulfonamide] displayed a melting point of 144 to 146 °C.

In turn, `COc1cccc(-c2nn(-c3ccccc3)cc2-c2ccnc(NCCNS(=O)(=O)c3ccccc3)c2)c1` [Compound 1a, N-(2-((4-(3-(3-methoxyphenyl)-1-phenyl-1H-pyrazol-4-yl)pyridin-2-yl)amino)ethyl) benzenesulfonamide] had a melting point of 104 to 106 °C.

`O=S(=O)(NCCNc1cc(-c2cn(-c3ccccc3)nc2-c2cccc(O)c2)ccn1)c1cccc(F)c1` [Compound 1p, 3-Fluoro-N-(2-((4-(3-(3-hydroxyphenyl)-1-phenyl-1H-pyrazol-4-yl)pyridin-2-yl)amino)ethyl)benzenesulfonamide] came in with a melting point of 146 to 148 °C.

In turn, `COc1ccc(S(=O)(=O)NCCCNc2cc(-c3cn(-c4ccccc4)nc3-c3cccc(OC)c3)ccn2)cc1` [Compound 2e, 4-Methoxy-N-(3-((4-(3-(3-methoxyphenyl)-1-phenyl-1H-pyrazol-4-yl)pyridin-2-yl)amino)propyl)benzenesulfonamide] returned a melting point of 124 to 126 °C.

As to `COc1cccc(-c2nn(-c3ccccc3)cc2-c2ccnc(NCCCNS(=O)(=O)c3ccccc3)c2)c1` [Compound 2a, N-(3-((4-(3-(3-Methoxyphenyl)-1-phenyl-1H-pyrazol-4-yl)pyridin-2-yl)amino)propyl) benzenesulfonamide], the melting point lay in the range of 119 to 120 °C.

`O=S(=O)(NCCCNc1cc(-c2cn(-c3ccccc3)nc2-c2cccc(O)c2)ccn1)c1ccccc1` [Compound 2j, N-(3-((4-(3-(3-Hydroxyphenyl)-1-phenyl-1H-pyrazol-4-yl)pyridin-2-yl)amino)propyl) benzenesulfonamide] showed a melting point of 154 to 156 °C.

Consider `COc1cccc(-c2nn(-c3ccccc3)cc2-c2ccnc(NCCNS(=O)(=O)c3cccc4ccccc34)c2)c1` [Compound 1i, N-(2-((4-(3-(3-Methoxyphenyl)-1-phenyl-1H-pyrazol-4-yl)pyridin-2-yl)amino)ethyl)naphthalene-1-sulfonamide], for which the melting point was 178 to 180 °C.

Regarding `O=S(=O)(NCCNc1cc(-c2cn(-c3ccccc3)nc2-c2cccc(O)c2)ccn1)c1ccccc1` [Compound 1j, N-(2-((4-(3-(3-Hydroxyphenyl)-1-phenyl-1H-pyrazol-4-yl)pyridin-2-yl)amino)ethyl) benzenesulfonamide], the melting point fell in the range of 100 to 102 °C.

Consider `COc1cccc(-c2nn(-c3ccccc3)cc2-c2ccnc(NCCNS(=O)(=O)c3ccc(C)cc3)c2)c1` [Compound 1f, N-(2-((4-(3-(3-Methoxyphenyl)-1-phenyl-1H-pyrazol-4-yl)pyridin-2-yl)amino)ethyl)-4-methylbenzenesulfonamide], for which the melting point is 150 to 152 °C.

Consider `CCN(CC)CCOC(=O)c1ccc(N)cc1` [Procaine], for which the “Plasma stability, remaining unchanged” value in the series “Plasma stability” (Human plasma, 30 min) was 1.2%; in the series “Plasma stability” (Human plasma, 30 min, listed as procaine), 1.2%; in “Plasma stability” (Human plasma, 120 min) it was 0.2%; in the series “Plasma stability” (Human plasma, 120 min, listed as procaine) it was 0.2%; in the series “Plasma stability” (Rat plasma, 30 min) it was 89.9%; in “Plasma stability” (Rat plasma, 120 min) it was 42.7%.

One may read the IC50 as the concentration at which inhibition is half-maximal. A high value points to a need for much substance. `CNC(=O)c1cc(Oc2ccc(NC(=O)Nc3ccc(Cl)c(C(F)(F)F)c3)cc2)ccn1` [Sorafenib, reference compound]: the concentration for half-maximal inhibition (IC50) was 2350 nM with colon cancer cell lines; 2150 nM in the series with breast cancer cell lines; 8570 nM in the series with melanoma cell lines; 2770 nM in [1]; 2510 nM with CNS cancer cell lines; 2110 nM in series [2]. Also, the IC50 in the series on renal cancer cell lines came out at 2890 nM; in the series on Leukaemia cell lines, 2230 nM; in [3], 3160 nM; in series [4] it was 2510 nM; in [5], 1850 nM; in series [6], 1250 nM. In addition, the half-inhibitory concentration (IC50) stood at 1990 nM in series [7], 2510 nM in series [8] and 2510 nM in series [9].
